Measured values from patent publication US12350194B1, “Topical ocular delivery of fluids with controlled mass dosing and wireless communication” (Bausch + Lomb Ireland Limited, priority 2018, dated 2025).

Legend:
[1] = system: patients with primary open angle glaucoma; test: Trial 2: intraocular pressure by Goldmann applanation tonometry; type: in vivo, human; conditions: AcuStream vs standard eye dropper; Wilcoxon Ranked Sum test, p=0.3447
Experimental: Trial 2 compared the efficacy (dose volume equivalence) of 0.005% w/v latanoprost for intraocular pressure reduction when delivered via AcuStream™ (pre-trial calibration volume=9.2 μl) versus the standard eye dropper for topical drug delivery (approximate volume=30 μl).
Patients included in Trial 2 have previously been diagnosed with primary open angle glaucoma on the basis of intraocular pressure and visual field testing, fundus examination or optical coherence tomography (OCT) data and are currently on prostaglandin analog medical therapy. Patients with corneal abnormalities that would interfere with accurate IOP measurements with applanation tonometry, use of an oral or topical ophthalmic steroids within the past 14 days from screening date, any active ocular surface or anterior segment disease, or progressive field loss during the past year were excluded from the study. Thirteen men and five women participated in the trial. […]
After performing slit lamp examinations on each patient to verify eligibility and obtaining informed consent, intraocular pressure (IOP) was measured by a sole experienced examiner who was blind to the randomized conditions. […]
Latanoprost solution was administered by a sole ophthalmologist to both eyes of each patient, based on the pre-determined randomized condition.

eye of subjects = test: Presbyopia: pupil diameter after self-administered pilocarpine micro-dose; type: in vivo, human
Experimental: A 10 μl micro-dose of a 1% pilocarpine solution was self-administered using an electromagnetic actuated fluid delivery device, e.g., as described above, by three subjects to their own eye. The age range of the subjects was 52 years to 68 years, and all subjects were male. The pilocarpine micro-dose was self-administered by the subjects.
Baseline, pre-dose values of pupil diameter and near visual acuity in both eyes prior to dosing was measured for all subjects, and then following the baseline measurements, the subjects were dosed in only one eye (the eye with the poorer visual acuity) with the micro-dose pilocarpine solution. Approximately 45 to 60 minutes after dosing, pupil diameter and near visual acuity were again tested. Near visual acuity was measured using a Snellen card at a distance of 40 cm. A tabulation of results is given below in Table A.

SMILES	difference in IOP reduction between groups [1]	miotic effect in non-dosed eye (eye of subjects)
CC(C)OC(=O)CCC/C=C\C[C@@H]1[C@@H](CC[C@@H](O)CCc2ccccc2)[C@H](O)C[C@@H]1O [latanoprost]	no statistically significant differences	–
CC[C@@H]1C(=O)OC[C@@H]1Cc1cncn1C [pilocarpine]	–	no miotic effect
